According to patent publication US11208385B2, “N-substituted imidazole carboxylate compound, preparation method and use” (priority 2017, dated 2021):
Read-outs that look alike come from different tables or passages of the source.

Legend:
[1] = test system: SD rats; conditions: for Time of complete recovery / Wake time after drug withdrawal: after 1 h continual infusion; for Time of complete recovery: from recovery of righting reflex to free walk; for Wake time after drug withdrawal: recovery time of righting reflex after discontinuance; for Incidence rate (%) of muscle tremor: continual infusion for 1 h
Description: 30 male SD rats weighing 250˜300 g were randomly divided into 6 groups, 5 rats for one group. […] Each drug was continually infused to rats via caudal vein, and made the righting reflex abolish, and the abolition of righting reflex was maintained for 1 hour. The wake time after drug withdrawal and the time of full recovery were recorded.

[2] = test system: SD rats; conditions: for Incidence rate (%) of muscle tremor: single iv dose of 2ED50, 10 rats per group; for Time of keeping anaesthesia / Time of complete recovery: single iv dose of 2ED50; for Time of keeping anaesthesia: from abolition to recovery of righting reflex; for Time of complete recovery: from recovery of righting reflex to free walk
Description: 150 male SD rats weighing 250˜300 g were randomly divided into 15 groups, 10 rats for one group. […] Drugs were injected to rats via caudal vein, and the injection time was 15 seconds. The abolition of righting reflex for 30 s or above was used as the indicator producing anaesthetic effect.

[3] = In vitro degradation experiment in rat liver homogenate (HPLC); assay type: in vitro ADME; conditions: rat liver homogenate, 37° C., 50 μg/mL
Description: In Vitro Degradation Experiment of Compounds.
Chromatographic condition: mobile phase is methanol: H2O=65:35, and the water phase contains 0.06% ammonium acetate; the flow rate is 1 mL/min; the column temperature is 25° C.
Apparatus: Agilent 1100 Series. Chromatographic column: Aglent Eclipse Plus C18 column, 5 μm 4.6*[…].
The linear range is 1-50 μg/mL.
After fasting for 24 h, male SD rats were treated to collect liver, and the water on the surface of liver was removed using the filter paper, then liver was weighed. […] Then, the homogenate was centrifugated at 10000 g for 20 min at the temperature of 4° C. The supernatant solution was collected, and 14 samples (2 mL) of liver homogenate were taken out and warmed to 37° C. in water bath. Each compound (content 10 mg/mL, 10 μl) was added, respectively, to make a concentration of 50 μg/mL in liver homogenate.
[…] After centrifugation, the supernatant solution was taken out and injected. The concentration of each compound at each time point was detected, that was divided by the initial concentration of each compound, to obtain the degradation ratio of each compound.

[4] = test system: corticosterone; assay: Serum corticosterone after dexamethasone suppression and ACTH stimulation in rats (ELISA); conditions: 30 min after drug withdrawal, ACTH stimulation
Description: Male rats (250˜300 g) were chosen as test animals, and the content of corticosterone in serum of rats was measured using ELISA kit and ELISA reader. 65 SD rats were randomly divided into 13 groups, five rats for each group. […] 30 min After administration of ACTH, the concentrations of two cortical hormones in animal body were determined.

Row | SMILES | Time of complete recovery [1] | Wake time after drug withdrawal [1] | Incidence rate (%) of muscle tremor [1] | Incidence rate (%) of muscle tremor [2] | Time of keeping anaesthesia [2] | Time of complete recovery [2] | Residual rate at 5 min (%) [3] | Residual rate at 10 min (%) [3] | Residual rate at 20 min (%) [3] | Cortex function of test animals after drug withdrawal [4]
1 | CC(C)OC(=O)OC(C)OC(=O)c1cncn1[C@H](C)c1ccccc1 (stereo partly shown) [Example 8] | 1.8 ± 0.6 min | 4.9 ± 2.7 min | 10% | 10% | 2.3 ± 0.3 min | 1.9 ± 1^ min | 2.1% | 0% | 0% | –
2 | C[C@H](c1ccccc1)n1cncc1C(=O)OCOC(=O)OC(C(F)(F)F)C(F)(F)F [Example 9] | 55 ± 38 min | 20 ± 14 min | 0% | 0% | 8.1 ± 2.3 min | 7.2 ± 2.9 min | 72.1% | 50.3% | 39.8% | –
3 | CCC(C)OC(=O)OCOC(=O)c1cncn1[C@H](C)c1ccccc1.Cl (stereo partly shown) [Example 10] | – | – | – | 0% | 2.5 ± 0.7 min | 2.0 ± 0.9 min | – | – | – | –
4 | CCC(C)OC(=O)OCOC(=O)c1cncn1[C@H](C)c1ccccc1 (stereo partly shown) [Example 11] | – | – | – | 0% | 2.8 ± 1.1 min | 2.1 ± 1.2 min | – | – | – | –
5 | CC(C)OC(=O)OCOC(=O)c1cncn1[C@H](C)c1ccccc1 [Example 12] | – | – | – | 0% | 2.2 ± 0.5 min | 1.2 ± 0.6 min | – | – | – | –
6 | CC[C@@H](C)OC(=O)OCOC(=O)c1cncn1[C@H](C)c1ccccc1 [Example 16] | 2.1 ± 0.5 min | 4.5 ± 2.2 min | 0% | 0% | 3.1 ± 0.4 min | 2.1 ± 0.5 min | 3.2% | 0% | 0% | –
7 | CC[C@H](C)OC(=O)OCOC(=O)c1cncn1[C@H](C)c1ccccc1 [Example 17] | – | – | – | 0% | 2.2 ± 0.3 min | 1.6 ± 0.2 min | 3.1% | 0% | 0% | –
8 | CCC(OC(=O)OC(C)C)OC(=O)c1cncn1[C@H](C)c1ccccc1 (stereo partly shown) [Example 28] | 22.5 ± 4.8 min | 10.1 ± 2.3 min | 0% | 0% | 3.5 ± 1.1 min | 2.1 ± 0.5 min | 5.3% | 0% | 0% | –
9 | COC(=O)CCOC(=O)c1cncn1[C@H](C)c1ccccc1 [MOC-ET, reference compound] | – | – | – | – | – | – | 0% | 0% | 0% | obviously recovered
